Data on 8 compounds can be found in patent US4845095A, “4-phenylpiperidine compounds and their use” (A/S Ferrosan, priority 1987, dated 1989).

Structures are written as SMILES.

This assay concerns acetic acid induced writhing syndrome. Put plainly: acetic acid induced writhing syndrome in mice. The following applies: for inhibition (ED50 table): s.c. 30 minutes before acetic acid; for ED50: Mus musculus, sc, dose giving 50 per cent protection against writhings, s.c. 30 minutes before acetic acid 0.5 per cent i.p., writhings counted 5-15 minutes after. It counts as in vivo, mice (NMRI). As for the experimental part:
The pharmaceutical properties of the compounds of the invention can be illustrated by determining their capability to antagonize the acetic acid induced writhing syndrome in mice.
In mice i.p. injection of acetic acid induces a writhing syndrome which is antagonized by analgesics (Siegmund et al., Proc. Soc. exp. Biol. 95, 729-731 (1957); Eckhardt et al., Proc. Soc. exp. Biol. 98, 186-188 (1958).
Test procedure: Acetic acid 0.5 per cent is injected i.p. (0.15 ml/10g body weight) to 6 mice (NMRI, either sex weighing 20-25 g) pretreated with physiological saline (controls) and to 6 mice pretreated with test substance. In the controls acetic acid induces a syndrome characterized by contraction of abdomen, turning of trunk and extension of hind limbs. Saline and test substances are administered s.c. 30 minutes before acetic acid. The number of writhings is counted 5-15 minutes after injection of acetic acid. The activity is expressed as per cent protection=
(Control drug)/Control×100
The effect of active substances is evaluated by a dose response curve, log dose on the abscissa, and per cent protection on the ordinate. The potency is expressed as the dose (ED50) in mg/kg giving 50 per cent protection against writhings. Test results obtained by testing some compounds of the invention will appear from the following table.
(In general: Writhing tests count abdominal constrictions after an irritant is injected.)

As for `CN1CCC(c2ccccc2)(c2nc(-c3ccccc3)no2)CC1` [Compound 3, 1-methyl-4-(3-phenyl-1,2,4-oxadiazol-5-yl)-4-phenylpiperidine], the “inhibition (ED50 table)” value (at 3 (table head mg/kg)) worked out at 41%.
For the compound `O=C(O)C(=O)O.c1ccc(OCCCCN2CCC(c3ccccc3)(c3nc(C4CC4)no3)CC2)cc1` [Compound 16, 4-(3-cyclopropyl-1,2,4-oxadiazol-5-yl)-1-(4-phenoxybutyl)-4-phenylpiperidine oxalate], the “inhibition (ED50 table)” value (at 10 (table head mg/kg)) was determined as 34%.
Take `Cc1noc(C2(c3ccccc3)CCN(C)CC2)n1.Cl` [Compound 1, 1-Methyl-4-(3-methyl-1,2,4-oxadiazol-5-yl)-4-phenylpiperidine hydrochloride]: the ED50 – broadly, the dose at which the effect has come halfway, by size or by number of responders – stood at 5.7 mg/kg.
Compound `CN1CCC(c2ccccc2)(c2nc(C3CC3)no2)CC1.Cl` [Compound 2, 1-methyl-4-(3-cyclopropyl-1,2,4-oxadiazol-5-yl)-4-phenylpiperidine hydrochloride] gave an ED50 of 7.6 mg/kg. The ED50 values of the last two compounds are within 1.5-fold of each other.
As for `c1ccc(C2(c3nc(C4CC4)no3)CCNCC2)cc1` [Compound 13, 4-(3-cyclopropyl-1,2,4-oxadiazol-5-yl)-4-phenylpiperidine], the ED50 was 2.9 mg/kg.
Same read-out and setting: for `CON=CC1(c2ccccc2)CCN(C)CC1.O=C(O)C(=O)O` [Compound 10, 4-Methoxyiminomethyl-1-methyl-4-phenyl-piperidine oxalate] the value was 3.2 mg/kg; for `CCOC(=O)C1(c2ccccc2)CCN(C)CC1` [Pethidine, reference compound], 9.25 mg/kg.
Still for that read-out and setting: as for `COCc1noc(C2(c3ccccc3)CCN(C)CC2)n1.Cl` [Compound 4, 1-methyl-4-(3-methoxymethyl-1,2,4-oxadiazol-5-yl)-4-phenylpiperidine hydrochloride], the figure is 3 mg/kg.
